Entries after “also recorded” stand apart in the source; their conditions may differ.
How the values were obtained:
[1] = tested on: salt sensitive Dahl rats; assay: Survival of salt sensitive Dahl rats on high salt (8% NaCl) diet with or without NaBr, 10 week study; type: in vivo, rat
Method: Control rats received AIN76A without supplemental chloride or bromide. 9 rats per study arm.
Dahl rats were administered a base diet of AIN76A with 8% NaCl, while a parallel arm was administered AIN76A with 8% NaCl and 300 mg of NaBr per kg of food. Mortality events were counted over the 10 week study.

[2] = tested on: spontaneously hypertensive rat (SHR); assay: 10 week daily dietary Br^− administration in SHR disease model (heart weight, survival, urinary protein); type: in vivo
Method: (FIG. 5 A-B) Heart and kidney weights from 10 week repeat dosing study in SHR model. Br^− administered daily via diet, with AIN-76a as base diet. WKY served as genetic control. Both kidneys per animal weighed together. […] (FIG. 5C-D) Heart and kidney weights from panels A-B normalized to body weight. […] (FIG. 5E) Rats were administered a diet of AIN76A with or without 10 mg NaBr per kg feed (“SHR” and “SHR+Br” study arms, […]). Survival probability was calculated between SHR rats receiving dietary Br— and SHR rats receiving AIN76A control diet over a 10 week study period. As a second control, Wistar Kyoto (WKY) rats were fed AIN76A control diet over the same period. 8 rats per study arm.
Eight SHR animals received AIN76A diet for 10 weeks while 8 SHR animals received AIN76A supplemented with 10 mg NaBr/kg diet.

[3] = tested on: spontaneously hypertensive rat (SHR); assay: Cardiac interstitial fibrosis, Masson's Trichrome staining, SHR; type: in vivo; details: 10 mg NaBr per kg AIN-76a, 10 weeks, p<0.0001
Method: (§1) AIN-76A was base diet for all animals. […] Fibrosis determined from 5 μm tissue sections stained with Masson's Trichrome. […] Approximately 25-30 images were collected and processed per animal.
Following conclusion of the in vivo study, rat hearts were formalin-fixed, paraffin-embedded, and 5 μm-thick sections were obtained for histochemical analysis.

[4] = tested on: salt sensitive Dahl rats; assay: Cardiac interstitial fibrosis, Masson's Trichrome staining, Dahl rats on high salt diet; type: in vivo, rat; details: 300 mg NaBr per kg AIN-76a+8% NaCl, 10 weeks, p<0.0001
Method: as §1

[5] = tested on: spontaneously hypertensive rat (SHR); assay: Blood pressure and heart rate (tail cuff) after single IP administration of NaBr in SHR; type: in vivo; details: single IP 154.5 μg NaBr per kg
Method: (A) In 10 week-old male SHR, single administration of Br^− reduced systolic and diastolic blood pressures compared to saline control. […] (C-D) Measured values for systolic (C) and diastolic (D) blood pressure, denoting statistical significance where achieved. 154.5 μg NaBr per kg rat body weight injected via IP. n=8 in Br Treatment group, =5 in saline control. BP & HR measured via tail cuff. *:p<0.05, T test.
(§2) The inventors next asked whether Br^− exerts any short-term activity in addition to the improved cardiac fibrosis noted after 10 weeks administration. Returning to the SHR preclinical model of disease, the inventors specifically asked whether Br^− administration modulates certain biomarkers associated with cardiovascular disease at one day post-administration. To this end, Br^− was administered to 8 SHR via intraperitoneal (IP) injection with an estimated 0.154 μg NaBr per gram body weight. For control, 8 SHR were administered saline via IP injection containing an estimated 4 ng NaBr per gram body weight. […] Moreover, the inventors believe that Br^− achieves its cardiovascular and renal therapeutic activities in part via modulation of natriuretic peptide signaling.

[6] = tested on: brain natriuretic peptide (BNP); assay: Serum BNP by ELISA after single IP administration of NaBr in SHR; type: in vivo, rat; details: single IP 154.5 μg NaBr per kg, one day post-administration, p<0.05
Method: 154.5 μg NaBr per kg rat body weight injected via IP. n=8 in Br Treatment group, =5 in saline control. Baseline serum collection occurred two days prior to treatment. *: p<0.05, T test.
as §2

[7] = in vivo; cited from earlier work
[8] = dogs that do not respond to an initial course of Br^− treatment; cited from earlier work
[9] = humans, in some circumstances, due to renal reabsorption; cited from earlier work
[10] = Serum Br^− concentration in Dahl rats after 10 weeks on diet (mass spectrometry)
Method: (FIG. 2A) Serum Br^− concentrations from rats fed a daily diet over 10 weeks of “AIN-76A”, “AIN-76A+8% NaCl”, “AIN-76A+Br”, or “AIN-76A+8% NaCl+Br”. […] The two diets containing 8% NaCl (eg. “AIN-76A+8% NaCl” and “AIN-76A+8% NaCl+Br”) were fed to Dahl rats while the remaining two diets (eg. “AIN-76A” and “AIN-76A+Br”) were fed to SHR, as indicated in panel A. Serum Br^− measurements were determined using mass spectrometry.
Thus, Dahl rats were fed a diet supplemented with 8% NaCl (AIN76A base diet) over the course of 10 weeks.
To test the invention, another group of Dahl rats were administered AIN76A supplemented with 8% NaCl and 300 mg NaBr per kg of food. Considering that the rat body weights increased from around 300 g to around 400 g over the course of the study, and assuming that the rats ate a relatively constant amount of 25 g of food per day, the daily consumption of Br^− ranged from approximately 14.6 to 19.4 mg Br^− per kg body weight, in accordance with the invention.

[11] = Serum Br^− concentration in spontaneously hypertensive rats (SHR) after 10 weeks on diet, safety
Method: (FIG. 2A) Serum Br^− concentrations from rats fed a daily diet over 10 weeks of “AIN-76A”, “AIN-76A+8% NaCl”, “AIN-76A+Br”, or “AIN-76A+8% NaCl+Br”. Salt sensitive Dahl rats as well as Spontaneously Hypertensive Rats (SHR) were used in these studies. The two diets containing 8% NaCl (eg. “AIN-76A+8% NaCl” and “AIN-76A+8% NaCl+Br”) were fed to Dahl rats while the remaining two diets (eg. “AIN-76A” and “AIN-76A+Br”) were fed to SHR, as indicated in panel A. Serum Br^− measurements were determined using mass spectrometry.
Rats were administered 10 mg of NaBr per kg of AIN76A diet for 10 weeks. At the end of the study, serum Br^− levels in Br-treated rats were compared to serum Br^− levels in SHR on AIN76A as well as Wistar rats on AIN76A.

[12] = tested on: acute heart failure patients; details: cited from earlier work
[13] = acute decompensated heart failure (Sackner-Bernstein et al. 2005)

Compound: [Br-].[Na+] [Br^−, sodium bromide]
- survival compared to High Salt alone (log rank test) ([1]; 9 rats per arm, p<0.001): significantly improved survival
- survival probability ([1]; AIN76A+8% NaCl with or without 300 mg NaBr per kg feed, 10 weeks): 67%
- heart weight (absolute) ([2]; 10 mg NaBr per kg AIN-76a, 10 weeks, vs SHR on AIN-76a alone, p<0.05): significantly reduced; also recorded: Statistically significant reduction
- treatment-induced mortality or electrolyte disturbances ([2]; 10 mg NaBr/kg diet, 10 weeks): No treatment-induced mortality or electrolyte disturbances
- survival probability among groups ([2]; 10 week study, 8 rats per arm): no statistical difference in survival
- heart weight normalized to body weight ([2]; 10 weeks): this trend was preserved; also recorded: Trends observed in absolute weights are preserved
- urinary microprotein/creatinine ratio (urinary protein levels) ([2]; after one day on study diet, persisted to end of study): significantly lower; also recorded: significantly reduced
- cardiac fibrosis (Masson's Trichrome blue staining) [3]: dramatic reduction in blue staining; also recorded: less cardiac fibrosis
- cardiac fibrosis (Masson's Trichrome blue staining) [4]: less cardiac fibrosis
- systolic blood pressure ([5]; one day post-administration, vs saline control): statistically significant reductions; also recorded: reduced
- heart rate ([5]; p=0.052): possible reduction
- diastolic blood pressure ([5]; vs saline control): reduced
- serum concentration of BNP peptide [6]: statistically significant increase; also recorded: significantly modulated
- circulating Br^− level at which the anti-epilepsy effect occurs [7]: > 6 mM
- therapeutic serum Br^− for sedative effect [8]: above 25 mM
- half-life [9]: ≥ 170 h
- mean serum Br^− ([10]; 10 weeks on diet, end of study): 246.50 µM
- toxicity assessment of serum Br^− concentrations ([10]; daily diet over 10 weeks): well below those levels required to induce bromide-associated toxicity
- mean serum Br^− ([11]; 10 mg NaBr per kg AIN76A diet, 10 weeks): 281.7 µM
- toxicity assessment of serum Br^− concentrations ([11]; daily diet over 10 weeks): below the toxicity threshold

Compound: CC[C@H](C)[C@@H]1NC(=O)[C@H](CCCNC(=N)N)NC(=O)[C@H](CC(=O)O)NC(=O)[C@H](CCSC)NC(=O)[C@H](CCCNC(=N)N)NC(=O)CNC(=O)CNC(=O)[C@H](Cc2ccccc2)NC(=O)[C@@H](NC(=O)[C@H](CO)NC(=O)[C@H](CO)NC(=O)[C@H](CCCNC(=N)N)NC(=O)[C@H](CCCNC(=N)N)NC(=O)[C@H](CC(C)C)NC(=O)[C@@H](N)CO)CSSC[C@@H](C(=O)N[C@@H](CC(N)=O)C(=O)N[C@@H](CO)C(=O)N[C@@H](Cc2ccccc2)C(=O)N[C@@H](CCCNC(=N)N)C(=O)N[C@@H](Cc2ccc(O)cc2)C(=O)O)NC(=O)CNC(=O)[C@H](CC(C)C)NC(=O)CNC(=O)[C@H](CO)NC(=O)[C@H](CCC(N)=O)NC(=O)[C@H](C)NC(=O)CNC1=O [carperitide]
- in-hospital mortality ([12]; acute heart failure patients in Japan (Matsue et al. 2015)): increased in-hospital mortality

Compound: nesiritide
- mortality [12, 13]: increased mortality
- renal function [12, 13]: worsening renal function

From patent publication US20190183927A1, “MEDICAL AND NUTRITIONAL COMPOSITIONS AND METHODS OF USE” (Sulfilatec, Inc., priority 2016, published 2019)
